{"source": "patent US8952024B2", "about": "“Herbicidal pyrimidone derivatives” (E I du Pont de Nemours and Company, priority 2009, dated 2015)", "data": [{"system": "yellow nutsedge (Cyperus esculentus)", "assay": "Test B pre-/postemergence plant response", "format": "in vivo", "details": "62 g ai/ha, postemergence; 0 is no effect, 100 is complete control; 13 to 15 days", "summary_of_the_method": "(§1)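 Plants treated either at seeding (loam/sand soil) or postemergence at 2 to 18 cm height, using a surfactant-containing non-phytotoxic solvent formulation. Evaluation was visual after 13 to 15 days, 0 to 100 scale relative to controls.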", "values": [{"smiles": "CCCn1c(-c2cccc(Br)c2)ncc(C(=O)C2=C(O)CCCC2=O)c1=O", "note": "[Compound 141]", "Nutsedge, Yellow plant response rating (0 to 100 scale)": 10}]}, {"system": "yellow nutsedge (Cyperus esculentus)", "assay": "Test B pre-/postemergence plant response", "format": "in vivo", "details": "Postemergence, 31 g ai/ha; 0 to 100 scale (0 no effect, 100 complete control)", "summary_of_the_method": "as §1", "values": [{"smiles": "CCCn1c(-c2cccc(Br)c2)ncc(C(=O)C2=C(O)CCCC2=O)c1=O", "note": "[Compound 141]", "Plant response rating, Nutsedge, Yellow": 0}]}, {"system": "yellow nutsedge (Cyperus esculentus)", "assay": "Test B pre-/postemergence plant response", "format": "in vivo", "details": "Postemergence, 125 g ai/ha; scale 0 to 100 (0 no effect, 100 complete control)", "summary_of_the_method": "as §1", "values": [{"smiles": "CCCn1c(-c2cccc(Br)c2)ncc(C(=O)C2=C(O)CCCC2=O)c1=O", "note": "[Compound 141]", "Plant response rating, Nutsedge, Yellow": 60}]}, {"system": "yellow nutsedge (Cyperus esculentus)", "assay": "Test B pre-/postemergence plant response", "format": "in vivo", "details": "Postemergence, 250 g ai/ha; scale 0 to 100 (0 no effect, 100 complete control); 13 to 15 days", "summary_of_the_method": "as §1", "values": [{"smiles": "CCCn1c(-c2cccc(Br)c2)ncc(C(=O)C2=C(O)CCCC2=O)c1=O", "note": "[Compound 141]", "Plant response rating, Nutsedge, Yellow": 60}]}, {"system": "large crabgrass (Digitaria sanguinalis)", "assay": "Test B pre-/postemergence plant response", "format": "in vivo", "details": "62 g ai/ha, postemergence; 0 is no effect, 100 is complete control; 13 to 15 days", "summary_of_the_method": "as §1", "values": [{"smiles": "CCCn1c(-c2cccc(Br)c2)ncc(C(=O)C2=C(O)CCCC2=O)c1=O", "note": "[Compound 141]", "Crabgrass, Large plant response rating (0 to 100 scale)": 75}]}, {"system": "large crabgrass (Digitaria sanguinalis)", "assay": "Test B pre-/postemergence plant response", "format": "in vivo", "details": "Postemergence, 31 g ai/ha; 0 to 100 scale (0 no effect, 100 complete control)", "summary_of_the_method": "as §1", "values": [{"smiles": "CCCn1c(-c2cccc(Br)c2)ncc(C(=O)C2=C(O)CCCC2=O)c1=O", "note": "[Compound 141]", "Plant response rating, Crabgrass, Large": 70}]}, {"system": "large crabgrass (Digitaria sanguinalis)", "assay": "Test B pre-/postemergence plant response", "format": "in vivo", "details": "Postemergence, 125 g ai/ha; scale 0 to 100 (0 no effect, 100 complete control)", "summary_of_the_method": "as §1", "values": [{"smiles": "CCCn1c(-c2cccc(Br)c2)ncc(C(=O)C2=C(O)CCCC2=O)c1=O", "note": "[Compound 141]", "Plant response rating, Crabgrass, Large": 80}]}, {"system": "large crabgrass (Digitaria sanguinalis)", "assay": "Test B pre-/postemergence plant response", "format": "in vivo", "details": "Postemergence, 250 g ai/ha; scale 0 to 100 (0 no effect, 100 complete control); 13 to 15 days", "summary_of_the_method": "as §1", "values": [{"smiles": "CCCn1c(-c2cccc(Br)c2)ncc(C(=O)C2=C(O)CCCC2=O)c1=O", "note": "[Compound 141]", "Plant response rating, Crabgrass, Large": 85}]}, {"system": "lambsquarters (Chenopodium album)", "assay": "Test B pre-/postemergence plant response", "format": "in vivo", "details": "62 g ai/ha, postemergence; 0 is no effect, 100 is complete control; 13 to 15 days", "summary_of_the_method": "as §1", "values": [{"smiles": "CCCn1c(-c2cccc(Br)c2)ncc(C(=O)C2=C(O)CCCC2=O)c1=O", "note": "[Compound 141]", "Lambsquarters plant response rating (0 to 100 scale)": 80}]}, {"system": "lambsquarters (Chenopodium album)", "assay": "Test B pre-/postemergence plant response", "format": "in vivo", "details": "Postemergence, 31 g ai/ha; 0 to 100 scale (0 no effect, 100 complete control)", "summary_of_the_method": "as §1", "values": [{"smiles": "CCCn1c(-c2cccc(Br)c2)ncc(C(=O)C2=C(O)CCCC2=O)c1=O", "note": "[Compound 141]", "Plant response rating, Lambsquarters": 80}]}, {"system": "lambsquarters (Chenopodium album)", "assay": "Test B pre-/postemergence plant response", "format": "in vivo", "details": "Postemergence, 125 g ai/ha; scale 0 to 100 (0 no effect, 100 complete control)", "summary_of_the_method": "as §1", "values": [{"smiles": "CCCn1c(-c2cccc(Br)c2)ncc(C(=O)C2=C(O)CCCC2=O)c1=O", "note": "[Compound 141]", "Plant response rating, Lambsquarters": 98}]}, {"system": "lambsquarters (Chenopodium album)", "assay": "Test B pre-/postemergence plant response", "format": "in vivo", "details": "Postemergence, 250 g ai/ha; scale 0 to 100 (0 no effect, 100 complete control); 13 to 15 days", "summary_of_the_method": "as §1", "values": [{"smiles": "CCCn1c(-c2cccc(Br)c2)ncc(C(=O)C2=C(O)CCCC2=O)c1=O", "note": "[Compound 141]", "Plant response rating, Lambsquarters": 100}]}, {"system": "woolly cupgrass (Eriochloa villosa)", "assay": "Test B pre-/postemergence plant response", "format": "in vivo", "details": "62 g ai/ha, postemergence; 0 is no effect, 100 is complete control; 13 to 15 days", "summary_of_the_method": "as §1", "values": [{"smiles": "CCCn1c(-c2cccc(Br)c2)ncc(C(=O)C2=C(O)CCCC2=O)c1=O", "note": "[Compound 141]", "Cupgrass, Woolly plant response rating (0 to 100 scale)": 65}]}, {"system": "woolly cupgrass (Eriochloa villosa)", "assay": "Test B pre-/postemergence plant response", "format": "in vivo", "details": "Postemergence, 31 g ai/ha; 0 to 100 scale (0 no effect, 100 complete control)", "summary_of_the_method": "as §1", "values": [{"smiles": "CCCn1c(-c2cccc(Br)c2)ncc(C(=O)C2=C(O)CCCC2=O)c1=O", "note": "[Compound 141]", "Plant response rating, Cupgrass, Woolly": 65}]}, {"system": "woolly cupgrass (Eriochloa villosa)", "assay": "Test B pre-/postemergence plant response", "format": "in vivo", "details": "Postemergence, 125 g ai/ha; scale 0 to 100 (0 no effect, 100 complete control)", "summary_of_the_method": "as §1", "values": [{"smiles": "CCCn1c(-c2cccc(Br)c2)ncc(C(=O)C2=C(O)CCCC2=O)c1=O", "note": "[Compound 141]", "Plant response rating, Cupgrass, Woolly": 65}]}, {"system": "woolly cupgrass (Eriochloa villosa)", "assay": "Test B pre-/postemergence plant response", "format": "in vivo", "details": "Postemergence, 250 g ai/ha; scale 0 to 100 (0 no effect, 100 complete control); 13 to 15 days", "summary_of_the_method": "as §1", "values": [{"smiles": "CCCn1c(-c2cccc(Br)c2)ncc(C(=O)C2=C(O)CCCC2=O)c1=O", "note": "[Compound 141]", "Plant response rating, Cupgrass, Woolly": 70}]}, {"system": "morningglory (Ipomoea coccinea)", "assay": "Test B pre-/postemergence plant response", "format": "in vivo", "details": "62 g ai/ha, postemergence; 0 is no effect, 100 is complete control; 13 to 15 days", "summary_of_the_method": "as §1", "values": [{"smiles": "CCCn1c(-c2cccc(Br)c2)ncc(C(=O)C2=C(O)CCCC2=O)c1=O", "note": "[Compound 141]", "Morningglory plant response rating (0 to 100 scale)": 60}]}, {"system": "morningglory (Ipomoea coccinea)", "assay": "Test B pre-/postemergence plant response", "format": "in vivo", "details": "Postemergence, 31 g ai/ha; 0 to 100 scale (0 no effect, 100 complete control)", "summary_of_the_method": "as §1", "values": [{"smiles": "CCCn1c(-c2cccc(Br)c2)ncc(C(=O)C2=C(O)CCCC2=O)c1=O", "note": "[Compound 141]", "Plant response rating, Morningglory": 60}]}, {"system": "morningglory (Ipomoea coccinea)", "assay": "Test B pre-/postemergence plant response", "format": "in vivo", "details": "Postemergence, 125 g ai/ha; scale 0 to 100 (0 no effect, 100 complete control)", "summary_of_the_method": "as §1", "values": [{"smiles": "CCCn1c(-c2cccc(Br)c2)ncc(C(=O)C2=C(O)CCCC2=O)c1=O", "note": "[Compound 141]", "Plant response rating, Morningglory": 60}]}, {"system": "morningglory (Ipomoea coccinea)", "assay": "Test B pre-/postemergence plant response", "format": "in vivo", "details": "Postemergence, 250 g ai/ha; scale 0 to 100 (0 no effect, 100 complete control); 13 to 15 days", "summary_of_the_method": "as §1", "values": [{"smiles": "CCCn1c(-c2cccc(Br)c2)ncc(C(=O)C2=C(O)CCCC2=O)c1=O", "note": "[Compound 141]", "Plant response rating, Morningglory": 65}]}, {"system": "Italian ryegrass (Lolium multiflorum)", "assay": "Test B pre-/postemergence plant response", "format": "in vivo", "details": "62 g ai/ha, postemergence; 0 is no effect, 100 is complete control; 13 to 15 days", "summary_of_the_method": "as §1", "values": [{"smiles": "CCCn1c(-c2cccc(Br)c2)ncc(C(=O)C2=C(O)CCCC2=O)c1=O", "note": "[Compound 141]", "Ryegrass, Italian plant response rating (0 to 100 scale)": 0}]}, {"system": "Italian ryegrass (Lolium multiflorum)", "assay": "Test B pre-/postemergence plant response", "format": "in vivo", "details": "Postemergence, 31 g ai/ha; 0 to 100 scale (0 no effect, 100 complete control)", "summary_of_the_method": "as §1", "values": [{"smiles": "CCCn1c(-c2cccc(Br)c2)ncc(C(=O)C2=C(O)CCCC2=O)c1=O", "note": "[Compound 141]", "Plant response rating, Ryegrass, Italian": 0}]}, {"system": "Italian ryegrass (Lolium multiflorum)", "assay": "Test B pre-/postemergence plant response", "format": "in vivo", "details": "Postemergence, 125 g ai/ha; scale 0 to 100 (0 no effect, 100 complete control)", "summary_of_the_method": "as §1", "values": [{"smiles": "CCCn1c(-c2cccc(Br)c2)ncc(C(=O)C2=C(O)CCCC2=O)c1=O", "note": "[Compound 141]", "Plant response rating, Ryegrass, Italian": 0}]}, {"system": "Italian ryegrass (Lolium multiflorum)", "assay": "Test B pre-/postemergence plant response", "format": "in vivo", "details": "Postemergence, 250 g ai/ha; scale 0 to 100 (0 no effect, 100 complete control); 13 to 15 days", "summary_of_the_method": "as §1", "values": [{"smiles": "CCCn1c(-c2cccc(Br)c2)ncc(C(=O)C2=C(O)CCCC2=O)c1=O", "note": "[Compound 141]", "Plant response rating, Ryegrass, Italian": 5}]}, {"system": "giant foxtail (Setaria faberii)", "assay": "Test B pre-/postemergence plant response", "format": "in vivo", "details": "62 g ai/ha, postemergence; 0 is no effect, 100 is complete control; 13 to 15 days", "summary_of_the_method": "as §1", "values": [{"smiles": "CCCn1c(-c2cccc(Br)c2)ncc(C(=O)C2=C(O)CCCC2=O)c1=O", "note": "[Compound 141]", "Foxtail, Giant plant response rating (0 to 100 scale)": 75}]}, {"system": "giant foxtail (Setaria faberii)", "assay": "Test B pre-/postemergence plant response", "format": "in vivo", "details": "Postemergence, 31 g ai/ha; 0 to 100 scale (0 no effect, 100 complete control)", "summary_of_the_method": "as §1", "values": [{"smiles": "CCCn1c(-c2cccc(Br)c2)ncc(C(=O)C2=C(O)CCCC2=O)c1=O", "note": "[Compound 141]", "Plant response rating, Foxtail, Giant": 75}]}]}
